Results published in the NIST ThermoML archive (doi:10.1016/j.fluid.2014.05.033).
“And” between values parts separate entries of the source, which are not always exact repeats. Equal values may be shown once.

Assays:
[1] = for kinematic viscosity / mass density: 101.33 kPa, Liquid; for kinematic viscosity: Capillary tube (Ostwald / Ubbelohde) method; for mass density: Vibrating tube method; for Normal melting temperature: Crystal, visual observation
[2] = refractive index (Na D-line) (dimensionless); details: 101.33 kPa, Liquid, Standard Abbe refractometry

COc1ccccc1 [anisole]
Details	kinematic viscosity, [1] [m2/s]	mass density, [1]	refractive index, [2]
288.15 K	1.123e-06	996.56 kg/m3	1.5198
293.15 K	1.041e-06	991.95 kg/m3	1.5169
298.15 K	9.71e-07	989.42 kg/m3 and 989.09 kg/m3	1.5143
303.15 K	8.99e-07	983.04 kg/m3	1.5117
308.15 K	8.39e-07	978.34 kg/m3	1.5092
313.15 K	7.89e-07	973.62 kg/m3	1.5063
318.15 K	7.4e-07	969.99 kg/m3	1.5041

COC(=O)OC [dimethyl carbonate]
Details	kinematic viscosity, [1] [m2/s]	mass density, [1] [kg/m3]	refractive index, [2]
288.15 K	6.05e-07	1077.16	1.371
293.15 K	5.7e-07	1070.18	1.3688
298.15 K	5.41e-07	1063.26	1.3664
303.15 K	5.08e-07	1056.23	1.364
308.15 K	4.76e-07	1049.85	1.3618
313.15 K	4.56e-07	1043.04	1.3595
318.15 K	4.33e-07	1036.51	1.357

Details	Normal melting temperature [°C]
[1]	5.01

O=C(Oc1ccccc1)Oc1ccccc1 [diphenyl carbonate]
Details	mass density [kg/m3]
[1], 358.15 K	1113.12

Details	Normal melting temperature
[1]	80.81 °C and 81.81 °C

CO [methanol]
Details	kinematic viscosity, [1] [m2/s]	mass density, [1]	refractive index, [2]
288.15 K	7.51e-07	796.5 kg/m3	1.3306
293.15 K	7.03e-07	791.46 kg/m3	1.3285
298.15 K	6.6e-07	786.59 kg/m3 and 786.69 kg/m3	1.3265
303.15 K	6.21e-07	782.03 kg/m3	1.3245
308.15 K	5.79e-07	777.29 kg/m3	1.3227
313.15 K	5.49e-07	772.51 kg/m3	1.3208
318.15 K	5.19e-07	767.69 kg/m3	1.3188

Details	Normal melting temperature [°C]
[1]	-98.00

COC(=O)Oc1ccccc1 [methyl phenyl carbonate]
Details	kinematic viscosity, [1] [m2/s]	mass density, [1]	refractive index, [2]
288.15 K	5.143e-06	1153.93 kg/m3	1.4991
293.15 K	4.275e-06	1148.74 kg/m3	1.4965
298.15 K	3.665e-06	1143.24 kg/m3 and 1143.63 kg/m3	1.4942
303.15 K	3.196e-06	1138.41 kg/m3	1.492
308.15 K	2.816e-06	1133.26 kg/m3	1.4896
313.15 K	2.486e-06	1128.11 kg/m3	1.4873
318.15 K	2.235e-06	1122.97 kg/m3	1.4853

Details	Normal melting temperature [°C]
[1]	-31.00

Oc1ccccc1 [phenol]
Details	mass density [kg/m3]
[1], 313.15 K	1058.51

Details	Normal melting temperature [°C]
[1]	40.90
